Experimental data published in PubChem BioAssay (NCI).
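Protocol summary: plate cells (96-well), add compound at 5 concentrations, incubate 48 h, interpolate endpoints linearly. GI50 = concentration required for 50% inhibition of growth. The concentration for full growth arrest is given as TGI.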

What was measured:
Assay in all cases: NCI-60 cell line screen, 48 h
786-0 renal = tested on: 786-0 renal
A498 renal = tested on: A498 renal
A549 NSCLC = tested on: A549 NSCLC
ACHN renal = tested on: ACHN renal
BT-549 breast = tested on: BT-549 breast
CAKI-1 renal = tested on: CAKI-1 renal
CCRF-CEM leukemia = tested on: CCRF-CEM leukemia
COLO 205 colon = tested on: COLO 205 colon
DU-145 prostate = tested on: DU-145 prostate
EKVX NSCLC = tested on: EKVX NSCLC
HCC-2998 colon = tested on: HCC-2998 colon
HCT-116 colon = tested on: HCT-116 colon
HCT-15 colon = tested on: HCT-15 colon
HL-60(TB) leukemia = tested on: HL-60(TB) leukemia
HOP-62 NSCLC = tested on: HOP-62 NSCLC
HOP-92 NSCLC = tested on: HOP-92 NSCLC
HS 578T breast = tested on: HS 578T breast
HT29 colon = tested on: HT29 colon
IGROV1 ovarian = tested on: IGROV1 ovarian
K-562 leukemia = tested on: K-562 leukemia
KM12 colon = tested on: KM12 colon
LOX IMVI melanoma = tested on: LOX IMVI melanoma
M14 melanoma = tested on: M14 melanoma
MALME-3M melanoma = tested on: MALME-3M melanoma
MCF7 breast = tested on: MCF7 breast
MDA-MB-231 breast = tested on: MDA-MB-231 breast
MDA-MB-435 = tested on: MDA-MB-435
MOLT-4 leukemia = tested on: MOLT-4 leukemia

Compound: Oc1ccc(CSc2nnc(-c3ccc(Oc4ccccc4)cc3)n2-c2ccccc2)c2cccnc12
- GI50 (786-0 renal): 527 nM
- TGI (786-0 renal): 11.3 µM
- GI50 (A498 renal): 641 nM
- TGI (A498 renal): 19.8 µM
- GI50 (A549 NSCLC): 133 nM
- TGI (A549 NSCLC): > 33.2 µM
- GI50 (ACHN renal): 137 nM
- TGI (ACHN renal): 10.9 µM
- GI50 (BT-549 breast): 105 nM
- TGI (BT-549 breast): > 100 µM
- GI50 (CAKI-1 renal): 313 nM
- TGI (CAKI-1 renal): 15.2 µM
- GI50 (CCRF-CEM leukemia): 72.9 nM
- TGI (CCRF-CEM leukemia): > 100 µM
- GI50 (COLO 205 colon): 1270 nM
- TGI (COLO 205 colon): > 100 µM
- GI50 (DU-145 prostate): 340 nM
- TGI (DU-145 prostate): > 100 µM
- GI50 (EKVX NSCLC): 339 nM
- TGI (EKVX NSCLC): > 100 µM
- GI50 (HCC-2998 colon): 154 nM
- TGI (HCC-2998 colon): > 100 µM
- GI50 (HCT-116 colon): 41.3 nM
- TGI (HCT-116 colon): 16 µM
- GI50 (HCT-15 colon): 179 nM
- TGI (HCT-15 colon): > 100 µM
- GI50 (HL-60(TB) leukemia): 79.8 nM
- TGI (HL-60(TB) leukemia): 1060 nM
- GI50 (HOP-62 NSCLC): 304 nM
- TGI (HOP-62 NSCLC): > 34.6 µM
- GI50 (HOP-92 NSCLC): 213 nM
- TGI (HOP-92 NSCLC): 31.8 µM
- GI50 (HS 578T breast): 325 nM
- TGI (HS 578T breast): > 100 µM
- GI50 (HT29 colon): 4.1 µM
- TGI (HT29 colon): > 100 µM
- GI50 (IGROV1 ovarian): 166 nM
- TGI (IGROV1 ovarian): > 55.9 µM
- GI50 (K-562 leukemia): 155 nM
- TGI (K-562 leukemia): > 53.1 µM
- GI50 (KM12 colon): 176 nM
- TGI (KM12 colon): > 100 µM
- GI50 (LOX IMVI melanoma): 169 nM
- TGI (LOX IMVI melanoma): 7.18 µM
- GI50 (M14 melanoma): 95.4 nM
- TGI (M14 melanoma): 1120 nM
- GI50 (MALME-3M melanoma): 340 nM
- TGI (MALME-3M melanoma): 11 µM
- GI50 (MCF7 breast): 94.2 nM
- TGI (MCF7 breast): > 100 µM
- GI50 (MDA-MB-231 breast): 355 nM
- TGI (MDA-MB-231 breast): 33 µM
- GI50 (MDA-MB-435): 57 nM
- TGI (MDA-MB-435): > 100 µM
- GI50 (MOLT-4 leukemia): 100 nM
